# Results reported in PMC9889419 (Pharmacological Reports, 2022).
# Values joined by “and” are separate entries in the source; they are usually repeats but may differ in a detail not shown here. Equal values may be shown once. Where a name gives a salt, the structure may show the parent alone. Read-outs that look alike come from different tables or passages of the source.
# How the values were obtained:
# [1] = Forced degradation studies (HPLC); assay type: physicochemical
# Procedure: HPLC conditions and equipment. The liquid chromatography system HITACHI High-Technologies Corporation (Tokyo, Japan) equipped with a solvent delivery pump (L-2130), a degasser, an autosampler (L-2200), a photodiode array detector (L-2455) and a column oven (L-2350) was used. […] The injection volume was 20 µL. Based on the registered absorption spectrum detection wavelength was selected as 230 nm. The analysis time was 15 min.
# Irradiation conditions. Irradiation was conducted in a climatic chamber KBF-ICH 240 APT.lineTM (Binder GmbH, Tuttlingen, Germany) at 25 °C and 60% humidity using UVA radiation (320–400 nm) with maximum emission at 365 nm. The intensity of radiation was determined using a radiometer type VLX-3 W, Vilber Lourmat, with a CX-365 sensor, to be each time of […]. The distance between the samples and the radiation source was 13 cm.
# Degradation in acidic solution. […] 8 mL of the examined solution was transferred to a glass vial and heated in an oven at 70 °C. The sample volume of 0.5 mL was taken and diluted with 0.5 mL of water. The solution was analyzed three times by HPLC method.
# Degradation in basic solution. […] 4 mL of examined solution was transferred to glass vials of 8 mL capacity and heated in an oven at 70 °C. The volume of 0.5 mL was taken and diluted with 0.5 mL of 0.5 M HCl. The solution was analyzed three times by HPLC method.
# Degradation in phosphate buffer at pH = 7.0. […] The volume of 8 mL of examined solution was transferred to glass vials of 8 mL capacity and stored in a dark place at 25 °C or heated in an oven at 70 °C. The volume of 0.5 mL of solution was taken and diluted with 0.5 mL of water. The solution was analyzed by HPLC method.
# Degradation in the presence of oxidative agent. […] The samples were stored at 25 °C. The volume of 0.5 mL of solution was taken and diluted with 0.5 mL of water. The solution was analyzed three times by HPLC method. […] The volume of 8 mL of examined solution was transferred to glass vials of 8 mL capacity and heated in an oven at 40 °C. The volume of 0.5 mL of solution was taken and diluted with 0.5 mL of water. The solution was analyzed by HPLC method.
# Degradation in the presence of reducing agent. […] 8 mL of the examined solution was transferred to 8 mL glass vials and stored at 25 °C and 40 °C. The volume of 0.5 mL of solution was taken and diluted with 0.5 mL of water. The solution was analyzed three times by HPLC method.
# Photodegradation under UV irradiation. […] 2 mL of the examined solution was transferred to a quartz Petri-dishes with diameter 4 cm and sealed with parafilm. Dark control samples were prepared in the same way, but they were secured with aluminum foil. The examined samples and the dark control samples were placed in a climatic chamber at […] and humidity 60% and irradiated for 96 h. The volume of 0.5 mL of solution was taken to the vials and the solution was analyzed by HPLC method.
# [2] = tested on: STZ-treated mice; assay: Streptozotocin-induced diabetic neuropathy, von Frey test; assay type: in vivo; conditions: for elevation of pain threshold (von Frey): STZ-treated mice
# [3] = target: T1, hNav1.2 sodium channel (Homo sapiens, UniProt Q99250); assay: Nav channel electrophysiology (IonWorks Quattro); assay type: cell-based
# T1 construct: host or cells: CHO cells
# T1 sequence (Q99250 whole entry): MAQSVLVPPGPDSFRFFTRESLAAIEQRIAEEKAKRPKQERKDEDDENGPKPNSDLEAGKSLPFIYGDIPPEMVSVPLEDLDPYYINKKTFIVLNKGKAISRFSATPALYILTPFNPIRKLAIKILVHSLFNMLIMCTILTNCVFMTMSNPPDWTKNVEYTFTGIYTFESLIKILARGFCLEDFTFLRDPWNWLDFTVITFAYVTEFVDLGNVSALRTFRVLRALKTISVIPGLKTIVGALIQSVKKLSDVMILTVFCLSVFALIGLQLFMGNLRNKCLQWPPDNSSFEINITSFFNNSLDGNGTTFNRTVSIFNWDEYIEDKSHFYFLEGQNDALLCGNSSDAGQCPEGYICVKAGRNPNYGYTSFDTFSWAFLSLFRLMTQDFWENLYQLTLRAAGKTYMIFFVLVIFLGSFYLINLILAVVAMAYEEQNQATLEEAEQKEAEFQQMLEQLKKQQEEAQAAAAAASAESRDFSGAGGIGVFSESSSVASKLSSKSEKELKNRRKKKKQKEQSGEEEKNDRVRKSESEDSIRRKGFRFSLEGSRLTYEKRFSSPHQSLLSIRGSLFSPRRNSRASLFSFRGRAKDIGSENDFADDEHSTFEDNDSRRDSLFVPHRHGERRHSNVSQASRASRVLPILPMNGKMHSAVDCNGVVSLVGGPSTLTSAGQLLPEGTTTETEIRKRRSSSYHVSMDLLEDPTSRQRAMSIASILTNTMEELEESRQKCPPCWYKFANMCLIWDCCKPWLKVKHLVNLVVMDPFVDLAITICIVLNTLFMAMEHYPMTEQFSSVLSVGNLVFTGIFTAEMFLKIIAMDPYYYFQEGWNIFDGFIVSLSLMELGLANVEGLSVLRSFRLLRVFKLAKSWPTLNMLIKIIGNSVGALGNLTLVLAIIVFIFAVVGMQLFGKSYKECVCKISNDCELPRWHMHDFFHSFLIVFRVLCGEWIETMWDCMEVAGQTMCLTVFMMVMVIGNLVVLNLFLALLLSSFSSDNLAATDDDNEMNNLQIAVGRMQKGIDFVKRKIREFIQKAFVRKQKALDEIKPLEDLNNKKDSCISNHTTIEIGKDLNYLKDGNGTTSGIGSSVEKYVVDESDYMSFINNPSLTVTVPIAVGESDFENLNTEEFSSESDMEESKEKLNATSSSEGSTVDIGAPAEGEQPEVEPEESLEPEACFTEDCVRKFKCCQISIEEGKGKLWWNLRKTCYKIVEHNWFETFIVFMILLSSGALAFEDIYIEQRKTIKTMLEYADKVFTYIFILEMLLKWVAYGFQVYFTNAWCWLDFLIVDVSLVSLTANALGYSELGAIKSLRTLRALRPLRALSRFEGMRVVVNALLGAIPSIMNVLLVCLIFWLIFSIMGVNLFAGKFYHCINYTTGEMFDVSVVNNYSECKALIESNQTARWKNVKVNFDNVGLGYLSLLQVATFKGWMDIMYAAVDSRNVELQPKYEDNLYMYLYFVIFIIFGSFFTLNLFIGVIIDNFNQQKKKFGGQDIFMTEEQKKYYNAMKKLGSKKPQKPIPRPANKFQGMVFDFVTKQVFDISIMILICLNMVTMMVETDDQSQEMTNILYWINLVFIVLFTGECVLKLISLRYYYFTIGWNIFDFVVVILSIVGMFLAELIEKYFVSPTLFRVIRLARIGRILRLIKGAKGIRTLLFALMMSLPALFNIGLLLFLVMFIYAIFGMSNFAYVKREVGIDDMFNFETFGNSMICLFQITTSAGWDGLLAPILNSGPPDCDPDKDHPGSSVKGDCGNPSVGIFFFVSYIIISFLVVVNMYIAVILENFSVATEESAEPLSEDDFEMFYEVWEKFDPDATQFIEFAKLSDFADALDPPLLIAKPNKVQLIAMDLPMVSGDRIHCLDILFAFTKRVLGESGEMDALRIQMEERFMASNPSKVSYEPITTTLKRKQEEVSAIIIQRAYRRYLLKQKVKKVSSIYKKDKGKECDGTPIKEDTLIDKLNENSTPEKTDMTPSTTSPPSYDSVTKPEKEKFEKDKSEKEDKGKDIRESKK
# [4] = Tissue distribution; assay type: in vivo, rats; conditions: for t0.5λz / Cmax / MRT / Tmax / Kp / k el: 5 mg/kg iv; for Kp: read-out: Kp (tissue-to-plasma AUC ratio); for k el: read-out: λz (converted);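 as to all read-outs here: organ homogenates in PBS analysed by HPLC after FMOC-Cl derivatization, non-compartmental analysis, Kp as tissue over plasma AUC, half-life taken as ln2 divided by λz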
# [5] = tested on: rats; assay: Sciatic nerve ligation (SNL) model, von Frey test; assay type: in vivo; conditions: rats; for Threshold ± S.E.M. / % Pre-Drug ± S.E.M.: 6 mg/kg b.w., i.p.
# [6] = tested on: CYP3A4 (pregnane X receptor); assay: In vitro metabolic gene induction studies; assay type: cell-based, human
# [7] = tested on: Frings mice; assay: Frings mice sound-induced seizures; assay type: in vivo; conditions: ip
# [8] = tested on: NIE-115 cells; assay: Patch-clamp (sodium currents); assay type: cell-based; conditions: 100 µM
smiles,measurement,setting,value
"CCC(CO)NCCOc1c(C)cccc1Cl (stereo not shown) [KM-408, R,S-2-((2-(2-chloro-6-methylphenoxy)ethyl)amino)butan-1-ol hydrochloride]",degradation,"[1]; 0.5 M HCl, 70 °C, 232 h",1.65%
same,degradation,"[1]; 0.5 M NaOH, 70 °C, 232 h",2.02%
same,degradation,"[1]; CuSO4, 192 h",1.65%
same,degradation products,"[1]; H2O2, 168 h",1.84%
same,degradation,"[1]; phosphate buffer pH 7.0, 25 °C, 240 h",1.52%
same,degradation,"[1]; phosphate buffer pH 7.0, 70 °C, 168 h",1.96%
same,degradation,"[1]; photodegradation, 96 h",1.43%
same,degradation,"[1]; reducing agent, 40 °C, 168 h",1.50%
same,elevation of pain threshold (von Frey),[2]; 1 mg/kg,132%
same,elevation of pain threshold (von Frey),[2]; 10 mg/kg,125%
same,STZ-induced pain (von Frey): active at,"[2]; mice, ip",1 mg/kg
same,IC50,[3]; 10 Hz,15.6 µM
same,IC50,[3]; Inactivated state,< 10 µM
same,IC50,[3]; Tonic block,48.7 µM
same,t0.5λz,[4]; Brain,28.56 min
same,t0.5λz,[4]; Heart,41.30 min
same,t0.5λz,[4]; Kidneys,16.23 min
same,t0.5λz,[4]; Liver,41.99 min
same,t0.5λz,[4]; Lungs,30.84 min
same,concentration in rat brain (approximated),"[4]; 2 h after iv, tissue density 1 g/mL assumed",~2.2*10^–7 M
same,concentration at 2 h,"[4]; male, Wistar, rat, brain, 5 mg/kg, 2 h after iv administration",64.9 ng/g
same,Cmax,"[4]; male, Wistar, rat, Brain",1770 ng/g
same,MRT,"[4]; male, Wistar, rat, Brain",37.9 min
same,Tmax,"[4]; male, Wistar, rat, Brain",5 min
same,Kp,"[4]; male, Wistar, rat, Brain",0.83
same,k el,"[4]; male, Wistar, rat, Brain",0.0004 s⁻¹
same,Cmax,"[4]; male, Wistar, rat, Heart",494 ng/g
same,MRT,"[4]; male, Wistar, rat, Heart",58.5 min
same,Tmax,"[4]; male, Wistar, rat, Heart",15 min
same,Kp,"[4]; male, Wistar, rat, Heart",0.38
same,k el,"[4]; male, Wistar, rat, Heart",0.000283 s⁻¹
same,Cmax,"[4]; male, Wistar, rat, Kidneys",1950 ng/g
same,MRT,"[4]; male, Wistar, rat, Kidneys",25.3 min
same,Tmax,"[4]; male, Wistar, rat, Kidneys",5 min
same,Kp,"[4]; male, Wistar, rat, Kidneys",0.62
same,k el,"[4]; male, Wistar, rat, Kidneys",0.000717 s⁻¹
same,Cmax,"[4]; male, Wistar, rat, Liver",161 ng/g
same,MRT,"[4]; male, Wistar, rat, Liver",113 min
same,Tmax,"[4]; male, Wistar, rat, Liver",5 min
same,Kp,"[4]; male, Wistar, rat, Liver",0.14
same,k el,"[4]; male, Wistar, rat, Liver",0.000283 s⁻¹
same,Cmax,"[4]; male, Wistar, rat, Lungs",4350 ng/g
same,MRT,"[4]; male, Wistar, rat, Lungs",46.9 min
same,Tmax,"[4]; male, Wistar, rat, Lungs",5 min
same,Kp,"[4]; male, Wistar, rat, Lungs",1.76
same,k el,"[4]; male, Wistar, rat, Lungs",0.000383 s⁻¹
same,Threshold ± S.E.M.,[5]; 0.0 h (pre-drug),2.88 ± 0.59 g
same,% Pre-Drug ± S.E.M.,[5]; 0.5 h,131 ± 15%
same,Threshold ± S.E.M.,[5]; 0.5 h,3.07 ± 0.51 g
same,% Pre-Drug ± S.E.M.,[5]; 1.0 h,202 ± 19%
same,Threshold ± S.E.M.,[5]; 1.0 h,5.94 ± 1.19 g
same,% Pre-Drug ± S.E.M.,[5]; 2.0 h,301 ± 45 %
same,Threshold ± S.E.M.,[5]; 2.0 h,8.23 ± 1.56 g
same,% Pre-Drug ± S.E.M.,[5]; 4.0 h,260 ± 39 %
same,Threshold ± S.E.M.,[5]; 4.0 h,7.09 ± 1.31 g
same,% Pre-Drug ± S.E.M.,[5]; 6.0 h,186 ± 31%
same,Threshold ± S.E.M.,[5]; 6.0 h,5.34 ± 1.32 g
same,SNL TPE,[5]; ip,2 h
same,SNL: active at,"[5]; ip, von Frey test",6.0 mg/kg and 6 mg/kg
"CCC(CO)NCCOc1c(C)cccc1Cl (stereo not shown) [Compound 4, R,S-2-((2-(2-chloro-6-methylphenoxy)ethyl)amino)butan-1-ol]",Max induction (calculated),[6]; @ 200uM,12 fold
same,EC50,[6]; read-out: EC50 (calculated),100 µM
same,Frings mice sound-induced seizures ED50,[7],6.05 (4.23–8.45) mg/kg
same,% of control +/- SEM,[8]; holding potential -60 mV,26 +/- 3%
same,% of control +/- SEM,[8]; holding potential -90 mV,55 +/- 5%
